Measured values from patent US20240342121A1, “THE USE OF BETA-HYDROXYBUTYRATES FOR THE TREATMENT OR PREVENTION OF ANEURYSMS AND DISSECTIONS” (priority 2021, published 2024).
“Also recorded” adds a separate entry of the source.

What was measured:
CaCl2-induced AAA [1] = assay: CaCl2-induced AAA animal model, post-treatment; type: in vivo, mouse
Method: FIGS. 5A-5J. (a) Representative image of aorta which developed CaCl2)-induced AAA, and post-treated with KD, KE, βHB, s-βHB, or ABT-737. KD is provided to mice for 4 weeks, KE is administrated with drinking water, βHB, s-βHB or ABT-737 are IP injected for 2 weeks with 48h intervals. (b) Incidence of AAA by CaCl2) treatment and proportion of mice recovered from the AAA after post-treatment of KD, KE, βHB and s-βHB for 2 weeks. (c) Time-dependent observation of inner diameter after CaCl2) treatment and post-treatment of KD or KE (28˜56 days after surgery). (d) Comparison of ultrasound images of CaCl2)-induced AAA to the identical aorta post-treated with βHB for 2 weeks. (e) H&E staining of aorta from the mice developed with CaCl2)-induced AAA, and post-treated with KD, KE, βHB, and s-βHB. (f) SA β-Gal activity assay on aorta which developed CaCl2)-induced AAA, and post-treated with KD, KE, βHB, s-βHB, or ABT-737. (g) Quantitation of senescent area on aorta developed with CaCl2)-induced AAA, and post-treated with KD, KE, βHB, s-βHB. (h) Verhoeff Van Gieson/EVG staining of abdominal aorta developed with CaCl2)-induced AAA, post-treated with KD, KE, βHB and s-βHB. (i) Average number of elastic fibers on abdominal aorta presented at FIG. 5H. (j) Measurement of Pulse Wave Velocity (PWV) on CaCl2)-infused mice with post-treatment of KD, KE, βHB, and s-βHB.
To confirm the possibility that the therapeutic effect of βHB on AAA is not only applied to AII-induced AAA, the CaCl2)-induced AAA animal model was also examined as well (FIG. 5A).
To further validate the therapeutic efficacy of s-βHB on aneurysms, we used a CaCl2-induced AAA animal model as well as an angiotensin II infusion model. […] Two-way ANOVA, s-βHB vs βHB, #P<0.01, n=10. Since the elimination of senescent SMCs is critical for the recovery of AAA, we investigated that s-βHB is also effective to remove senescent cells in CaCl2)-induced aneurysms. […] Student's T-test for s-βHB vs βHB, ^#P<0.05, n=8.

senescent SMCs [2] = assay: Cellular viability (cytotoxicity) assay of senescent and normal SMCs; type: cell-based; conditions: premature senescence by H2O2, Arsenite or Nutlin 3a, FIG. 2A
Method: (§1) FIGS. 2A-2L. (a) Cytotoxicity assay of normal smooth muscle cells (NS) and senescent smooth muscle cells (SMCs). Replicative senescent SMCs (RS) and premature senescent SMCs, stimulated by H2O2 (HP), arsenic (Ars), and Nutlin 3a (Nut) treatment were treated with βHB, s-βHB, and ABT-737. (b) Flow cytometry analysis of apoptosis by βHB or s-βHB in radiation (10 Gy)-induced senescent SMC. (c) Quantitation of apoptotic cell and senescent cell after treating βHB and s-βHB in radiation-induced senescent SMC. (d) Representative aorta image of AII-infused mice with post-treatment of ABT-737, βHB and s-βHB. (e) External diameter of abdominal aorta infused with AII and post-treated with ABT-737 βHB and s-βHB. (f) SA-βGal activity assay of the whole aorta infused with AII, and post-treated with ABT-737, KD, or KE. (g) Quantitation of senescent area on aorta of AII-infused mice, and post-treated with KD, KE and ABT-737. (h) TUNEL assay on the abdominal aorta of AII infused mice, and treated with ABT-737, βHB, or s-βHB. SM-α Actin (SMA) and DAPI are co-stained after TUNEL reaction. […]
The clearance of senescent cells that accumulate during the aneurysm development is required to reduce the volume of aneurysm plaque. Thus, the senotherapeutic potential of βHB to reverse AAA progression was evaluated. […]

[3] = tested on: angiotensin II (AII)-induced AAA; assay: AII-induced AAA mouse model, post-treatment; type: in vivo; conditions: injection every other day for two weeks, FIG. 2E
[4] = tested on: Oct4 overexpressed senescent SMCs; assay: Oct4 overexpressed senescent SMCs (SA β-Gal, Western blot); type: cell-based; conditions: Oct4 overexpression by CRISPR-dCas9-VP64, FIG. 14A
From the text: FIGS. 14A-14B show (a) SA β-Gal activity on Oct4 overexpressed SMCs with or without βHB treatment (2 days). Irradiated SMCs were infected by Lentivirus containing Crispr-dCas9-VP64_Oct4 plasmid prior to treating βHB. The arrow indicates localized senescent cell mass. (b) Western blot analysis after lentivirus (Crispr-dCas9-VP64_Oct4) infection into senescent SMCs without βHB treatment for 1 day or 2 days.
We proposed that Oct4 upregulation in senescence forms senescent spheroid-like cell mass and asymmetric configuration of aneurysms. To validate our central hypothesis, we overexpressed Oct4 in senescent SMCs using the CRISPR-dCas9-VP64 system to determine the role of Oct4. […] Localized increase of senescence may be highly associated with asymmetric dilation of aneurysms. […] We supposed that βHB prevents or reverses Oct4-induced senescence of SMCs, consequently reducing the size of aneurysms. To investigate the role of βHB in aneurysms, we assess the possibility of cellular reprogramming in senescent SMCs in the condition of Oct4 overexpression. […] In particular, a moderate increase of FAP (Fibroblast Activation Protein) provides a potential for reprogramming resulting in transdifferentiation of SMCs to myofibroblast. Recovered SM22 expression in Oct4 overexpressed senescent SMCs supposed that βHB converts the Oct4 function in dedifferentiation into a reprogramming-related role. We considered an βHB-induced epigenetic alteration of senescent cells contributing to Oct4-dependent cellular reprogramming based on this unique observation.

[5] = tested on: angiotensin II (AII)-induced AAA; assay: AII-induced AAA mouse model, post-treatment; type: in vivo
From the text: To determine if senescence is a major cause of aneurysm development, the association between senescence and aneurysms using the angiotensin II (AII)-induced AAA model was investigated. Mice were infused AII for four weeks using osmotic mini-pump implantation into Apoe^−/− transgenic mouse.
To investigate the therapeutic potential of ketotherapy for abdominal aortic aneurysm (AAA), Ketogenic-diet (KD) and Ketone-ester (KE) were provided to angiotensin II (AII)-induced mouse model of AAA (FIG. 6). […] After completing AII infusion, the mice were post-treated with KD and KE for two to four weeks.
To investigate the time-dependent reduction of aorta diameter, the inner diameter of the aorta using ultrasound analysis was measured.

CaCl2-induced AAA [6] = assay: CaCl2-induced AAA animal model, post-treatment; type: in vivo, mouse; conditions: n=10, FIG. 5C
[7] = in vivo
From the text: We established an in vivo tolerance test of βHB and s-βHB (FIGS. 9A and 9B). […] The reduction of the inner diameter of the aortic wall is also dramatic in the treatment of s-βHB in FIG. 9F (Two-way ANOVA, ^###P<0.005, n=10).

senescent SMCs [8] = assay: Flow cytometry (FACS) apoptosis analysis, PI and Annexin V; type: cell-based; conditions: FIGS. 2B, 2C
Method: as §1, with “reaction. (i) Caspase 3 activity assay on normal SMCs (NC) treated with βHB, or s-βHB, and ABT-737 comparing to normal cells pretreated with Nutlin-3a. (j) Caspase 3 activity assay on senescent SMCs (SNC) treated with βHB, or s-βHB, and ABT-737 compared to senescent cells pretreated with pifithrin-α.” for “reaction.”

For `C[C@H](O)CC(=O)O` [s-βHB, (S)-3-hydroxybutyrate], the “recovery from CaCl2-induced AAA” value (CaCl2-induced AAA [1]; FIGS. 5A and 5B) was “effectively reversed aneurysms”, the “senescent cells, SA β-gal assay” value (CaCl2-induced AAA [1]; FIGS. 5F and 5G) was “significantly reduced senescent cells” and the “number of senescent SMCs versus normal SMCs” value (senescent SMCs [2]) was “selectively reduced the number of senescent SMCs and not normal SMCs; also recorded: significantly reduced”. For the same compound, the “external diameter of the abdominal aorta” value [3] was “significantly reduced; also recorded: strongly reduced”, the “localized senescence, SA β-Gal activity” value [4] was “significantly reverses or prevents the development of localized senescence” and the “TUNEL assay, apoptosis of senescent plaque in the aneurysm” value ([5]; FIG. 2H) was “induced targeted apoptosis of senescent plaque”. For the same compound, the lesion area ([5]; FIG. 9G) was “relatively more effective than βHB”, the “body weight and lipids levels” value ([5]; FIGS. 9H-9J) was “no significant alteration” and the “recovery rate of aneurysms” value ([5]; compared to βHB) was “significant improvement in the recovery rate of aneurysms compared to the βHB treatment”. The “AAA rate after post-treating” value ([5]; incidence of AAA by angiotensin II infusion 67%, n=10, FIG. 9D) was 27%, the “reduction of the inner diameter of the aortic wall” value ([5]; n=10, FIG. 9F) was “dramatic” and the “time-dependent reduction of the external diameter of the aortic wall” value (CaCl2-induced AAA [6]) was “more effective than βHB”. The half-life [7] was 2 h and the “apoptosis of senescent SMCs” value (senescent SMCs [8]) was “more effectively than βHB”.
